Results as given in patent publication US20250197423A1, “RAS INHIBITORS” (Revolution Medicines, Inc., priority 2022, published 2025).

Key:
[1] = from CO[C@@H](C)c1ncccc1-c1c(CC(C)(C)CO)c2cc(C3=CCCN(C[C@H](NC(=O)OC(C)(C)C)C(=O)N4CCC[C@@H](C(=O)O)N4)C3)ccc2n1CC(F)(F)F; ester bond; 18-membered ring; EDCI/HOBt/DIEA; DCM; 12.5 mM; 25.0 °C; 16.0 h; 3 steps
[2] = system: SW1573; conditions: Canon et al. 2019; cited from earlier work

SMILES	ring closure, isolated yield [1] [%]	sensitivity of cell line to inhibitor [2]
CO[C@@H](C)c1ncccc1-c1c2c3cc(ccc3n1CC(F)(F)F)C1=CCCN(C1)C[C@H](NC(=O)OC(C)(C)C)C(=O)N1CCC[C@H](N1)C(=O)OCC(C)(C)C2	63.7	–
C=CC(=O)N1CCN(c2nc(=O)n(-c3c(C)ccnc3C(C)C)c3nc(-c4c(O)cccc4F)c(F)cc23)[C@@H](C)C1 [AMG510]	–	insensitive
